Measurements: US20100004267A1, “LIQUID PREPARATION” (ASUBIO PHARMA CO., LTD., priority 2006, published 2010)

Columns and labels:
[1] = Reduction in surface activity in SUN N8075 aqueous solution (Test example 7); type: physicochemical; parameters: key to Appearance after shaking / Appearance after standing: A: Clear; B+: Almost clear; B: Much less insoluble matters than Control; Clearly less insoluble matter than Control; D: Comparable amount of insoluble matters with Control; E: More insoluble matters than Control; key to General judgment: A: Great effect; B+: Large effect; B: Effective; C: Effective but very small; D: Comparable to Control (No effect); E: Inferior to Control (clouded); key to Foaming property: A: Much less foaming than Control; B: Clearly less foaming than Control; Slightly less foaming than Control; D: Comparable to Control; E: More foaming than Control
Method: (§1) Into each test compound solution which was prepared in advance to achieve each adding concentration shown in the Table, SUN N8075 was added and dissolved so that the concentration thereof was 5 mg/mL, and the pH value was adjusted to 3 to 4 as appropriate by hydrochloric acid to prepare a sample solution.
(§2) Each 10 mL of sample solution was put into a 10-mL stoppered test tube, and shaken 30 strokes vertically by hand and allowed to stand upright, and under room diffused light, appearance of sample solution after shaking, foaming property (foaming quantity), defoaming time, post standing observation (after standing for 3 days or more) were evaluated.
(§3) As a control, an aqueous solution containing no test substance but containing 5 mg/mL of SUN N8075 was examined in a similar manner.

[2] = as above; type: physicochemical; parameters: key: A: Much less foaming than Control; B: Clearly less foaming than Control; Slightly less foaming than Control; D: Comparable to Control; E: More foaming than Control
Method: as §1, §2, §3

[3] = Control: 5 mg/mL SUN N8075 aqueous solution, no test substance

SMILES: Cc1cc(OC[C@@H](O)CN2CCN(c3ccc(Cc4ccc(F)cc4)cc3)CC2)c(C)c(C)c1N [SUN N8075, (2S)-1-(4-amino-2,3,5-trimethylphenoxy)-3-{4-[4-(4-fluorobenzyl)phenyl]-1-piperazinyl}-2-propanol dimethane sulfonate]
- Appearance after shaking ([1]; Captisol 10.00%): A
- Appearance after standing ([1]; Captisol 10.00%): A
- Defoaming time ([1]; Captisol 10.00%): A (In 20 minutes)
- Foaming property ([1]; Captisol 10.00%): A
- General judgment ([1]; Captisol 10.00%): A
- Appearance after shaking ([1]; Chlorobutanol 0.10%): D
- Appearance after standing ([1]; Chlorobutanol 0.10%): D
- Foaming property ([1]; Chlorobutanol 0.10%): C
- General judgment ([1]; Chlorobutanol 0.10%): D
- Appearance after shaking ([1]; Chlorobutanol 0.50%): B
- Appearance after standing ([1]; Chlorobutanol 0.50%): A
- Foaming property ([1]; Chlorobutanol 0.50%): B
- General judgment ([1]; Chlorobutanol 0.50%): B+
- Appearance after shaking ([1]; Chlorobutanol […]): C
- Appearance after standing ([1]; Chlorobutanol […]): A
- Foaming property ([1]; Chlorobutanol […]): C
- General judgment ([1]; Chlorobutanol […]): B
- Appearance after shaking/Appearance after standing [1, 3]: Large amount of insoluble matters in wall face and appearance in Control
- Foaming property [1, 3]: Very high foaming property in Control
- Defoaming time ([1]; Control: 5 mg/mL SUN N8075 aqueous solution, no test substance, standing): Not defoamed after standing for 1 week in Control
- Appearance after shaking ([1]; Ethanol 1.00%): B
- Appearance after standing ([1]; Ethanol 1.00%): B
- Foaming property ([1]; Ethanol 1.00%): C
- General judgment ([1]; Ethanol 1.00%): B
- Appearance after shaking ([1]; Ethanol 5.00%): D
- Appearance after standing ([1]; Ethanol 5.00%): E
- Foaming property ([1]; Ethanol 5.00%): D
- General judgment ([1]; Ethanol 5.00%): D
- Appearance after shaking ([1]; Ethanol 10.00%): D
- Appearance after standing ([1]; Ethanol 10.00%): E
- Foaming property ([1]; Ethanol 10.00%): D
- General judgment ([1]; Ethanol 10.00%): D
- Appearance after shaking ([1]; Ethanol […]): B
- Appearance after standing ([1]; Ethanol […]): C
- Foaming property ([1]; Ethanol […]): D
- General judgment ([1]; Ethanol […]): C
- Appearance after shaking ([1]; Glycine 100 mM): B
- Appearance after standing ([1]; Glycine 100 mM): B
- Foaming property ([1]; Glycine 100 mM): B
- General judgment ([1]; Glycine 100 mM): B
- Appearance after shaking ([1]; L-Arginine 30 mM): B+
- Appearance after standing ([1]; L-Arginine 30 mM): B+
- Defoaming time ([1]; L-Arginine 30 mM): B (In 60 minutes)
- Foaming property ([1]; L-Arginine 30 mM): B
- General judgment ([1]; L-Arginine 30 mM): B+
- Appearance after shaking ([1]; L-Arginine 60 mM): A
- Appearance after standing ([1]; L-Arginine 60 mM): A
- Defoaming time ([1]; L-Arginine 60 mM): A (In 20 minutes)
- Foaming property ([1]; L-Arginine 60 mM): A
- General judgment ([1]; L-Arginine 60 mM): A
- Appearance after shaking ([1]; L-Histidine 60 mM): A
- Appearance after standing ([1]; L-Histidine 60 mM): A
- Defoaming time ([1]; L-Histidine 60 mM): A (In 20 minutes)
- Foaming property ([1]; L-Histidine 60 mM): A
- General judgment ([1]; L-Histidine 60 mM): A
- Appearance after shaking ([1]; Meglumine 25 mM): C
- Appearance after standing ([1]; Meglumine 25 mM): C
- Foaming property ([1]; Meglumine 25 mM): D
- General judgment ([1]; Meglumine 25 mM): C
- Appearance after shaking ([1]; Meglumine 50 mM): A
- Appearance after standing ([1]; Meglumine 50 mM): A
- Defoaming time ([1]; Meglumine 50 mM): B (In 60 minutes)
- Foaming property ([1]; Meglumine 50 mM): C
- General judgment ([1]; Meglumine 50 mM): B
- Appearance after shaking ([1]; Meglumine 75 mM): A
- Appearance after standing ([1]; Meglumine 75 mM): A
- Defoaming time ([1]; Meglumine 75 mM): B (In 60 minutes)
- Foaming property ([1]; Meglumine 75 mM): B
- General judgment ([1]; Meglumine 75 mM): A
- Appearance after shaking ([1]; Meglumine 100 mM): A
- Appearance after standing ([1]; Meglumine 100 mM): A
- Defoaming time ([1]; Meglumine 100 mM): A (In 20 minutes)
- Foaming property ([1]; Meglumine 100 mM): C
- General judgment ([1]; Meglumine 100 mM): A
- Appearance after shaking ([1]; Methane sulfonic acid 15 mM): D
- Appearance after standing ([1]; Methane sulfonic acid 15 mM): D
- Foaming property ([1]; Methane sulfonic acid 15 mM): B
- General judgment ([1]; Methane sulfonic acid 15 mM): D
- Appearance after shaking ([1]; Propylene glycol 1.00%): B
- Appearance after standing ([1]; Propylene glycol 1.00%): A
- Foaming property ([1]; Propylene glycol 1.00%): B
- General judgment ([1]; Propylene glycol 1.00%): B+
- Appearance after shaking ([1]; Propylene glycol 5.00%): B
- Appearance after standing ([1]; Propylene glycol 5.00%): D
- Foaming property ([1]; Propylene glycol 5.00%): D
- General judgment ([1]; Propylene glycol 5.00%): D
- Appearance after shaking ([1]; Propylene glycol 10.00%): C
- Appearance after standing ([1]; Propylene glycol 10.00%): D
- Foaming property ([1]; Propylene glycol 10.00%): D
- General judgment ([1]; Propylene glycol 10.00%): D
- Appearance after shaking ([1]; Propylene glycol […]): C
- Appearance after standing ([1]; Propylene glycol […]): D
- Foaming property ([1]; Propylene glycol […]): D
- General judgment ([1]; Propylene glycol […]): D
- Appearance after shaking ([1]; Sodium L-glutamate 30 mM): B+
- Appearance after standing ([1]; Sodium L-glutamate 30 mM): B+
- Foaming property ([1]; Sodium L-glutamate 30 mM): B+
- General judgment ([1]; Sodium L-glutamate 30 mM): B+
- Appearance after shaking ([1]; Sodium L-glutamate 60 mM): A
- Appearance after standing ([1]; Sodium L-glutamate 60 mM): A
- Defoaming time ([1]; Sodium L-glutamate 60 mM): A (In 20 minutes)
- Foaming property ([1]; Sodium L-glutamate 60 mM): B+
- General judgment ([1]; Sodium L-glutamate 60 mM): A
- Appearance after shaking ([1]; Sodium chloride 25 mM): D
- Appearance after standing ([1]; Sodium chloride 25 mM): D
- Foaming property ([1]; Sodium chloride 25 mM): B
- General judgment ([1]; Sodium chloride 25 mM): D
- Appearance after shaking ([1]; Sodium chloride 50 mM): B
- Appearance after standing ([1]; Sodium chloride 50 mM): B
- Foaming property ([1]; Sodium chloride 50 mM): A
- General judgment ([1]; Sodium chloride 50 mM): C
- Appearance after shaking ([1]; Sodium chloride 75 mM): A
- Appearance after standing ([1]; Sodium chloride 75 mM): A
- Defoaming time ([1]; Sodium chloride 75 mM): A (In 20 minutes)
- Foaming property ([1]; Sodium chloride 75 mM): B+
- General judgment ([1]; Sodium chloride 75 mM): A
- Appearance after shaking ([1]; Sodium chloride 100 mM): A
- Appearance after standing ([1]; Sodium chloride 100 mM): A
- Defoaming time ([1]; Sodium chloride 100 mM): A (In 20 minutes)
- Foaming property ([1]; Sodium chloride 100 mM): B
- General judgment ([1]; Sodium chloride 100 mM): A
- Defoaming time ([2]; Chlorobutanol 0.10%): D
- Defoaming time ([2]; Sodium chloride 25 mM): D
